In patent US20080255062A1, “AXON REGENERATION FROM ADULT SENSORY NEURONS” (UNIVERSITY OF MANITOBA, priority 2007, published 2008):
Where a name gives a salt, the structure may show the parent alone.

Legend:
adult sensory neurons = experiment: Small molecule screen for axon regeneration and outgrowth in adult neural cell suspensions (Example 3); type: cell-based, Sprague-Dawley rat; conditions: 10 μM drug, 24 hrs incubation; average of 4 fields from 3 wells (12 fields) ± SE; 30×30 μm grid
From the text: A single adult male Sprague-Dawley rat weighing between 250 g-450 g was anesthetized by isofluorane induction. After no response to external stimuli, the rat was sacrificed by guillotine.
Unnecessary satellite tissues and nerve fibers were cleaned from the DRG tissue immersed in the cell suspension medium at ambient room temperature using # 5 student forceps and a #10 scalpel blade under a Fisher Scientific Stereomaster® dissecting microscope (Stereomaster is a registered trademark of Fischer Scientific Co., LLC., Hampton, N.H., USA). The cleaned DRG tissue was placed into fresh cell suspension medium.
The cleaned DRG tissue was digested enzymatically to remove collagen fibers and proteinaceous material thereby releasing single DRG cells, as follows. […] The DRG tissue was then transferred to a fresh collagenase enzyme-cell suspension medium and incubated for another hour, after which the collagenase-digested DRG tissue was aspirated and washed twice in cell suspension medium pre-warmed to ambient room temperature.
The washed collagenase-digested DRG tissue was then placed into cell suspension medium to which a trypsin enzyme preparation (Prod. # T5266 from porcine pancreas; supplied by Sigma-Aldrich) was added to a final concentration of 0.25%, and then incubated for twenty minutes at 37° C. in a sterile atmosphere comprising 5% CO2. The trypsin action was stopped by the addition of 1 mL of pre-warmed HyClone fetal bovine serum […] (FBS Prod. # SH30070.01 supplied by Thermo Fisher Scientific, Napean, ON, Canada). The enzyme-digested DRG tissue was then washed twice with cell suspension medium supplemented with 10% FBS to ensure deactivation of trypsin activity. The enzyme-digested DRG tissue was then washed twice with cell suspension medium to remove the FBS.
The enzyme-digested DRG tissue was taken up from the cell suspension medium into a borosilicate glass Pasteur pipette (note that a borosilicate glass pipette was used to minimize DRG tissue sticking to the pipette) and was triturated about 15 times to disrupt the DRG tissue and to disassociate individual cells, after which the large tissue fragments were allowed to settle out of the suspension.
The supernatent containing satellite cells and debris was aspirated and discarded. […] The Ham's F12 medium containing 15% BSA served as a purification column for the supernatent and produced several upper layers containing dead cells, cellular debris and satellite layers over pellet of live neural cells. The upper layers were removed by aspiration with a Pasteur pipette. The cell pellet was resuspended in 1 mL of plating medium which comprised the cell suspension medium amended with 15 mM D-glucose (for a final concentation of 25 mM glucose). The 1 mL of suspended neural cells was then added to 19 mL of plating medium to make a 20-mL suspension of live neural cells.
600 μL of the neural cell suspension was removed to a 1.5 mL Eppendorf centrifuge tube.
The 600-μL reserved neural cell suspension was separated into three 200-μL aliquots which were then each plated into a well. The growth-factor-amended neural cell suspension was then plated into the remaining 93 wells in 200-μL aliquots. DMSO (Cat. # D2650 supplied by Sigma-Aldrich) was added to the three control wells (i.e., containing neural cell suspension that was not amended with growth factor supplements). The 96-well plate was then stored in a direct-heat humidified incubator (Form a CO2 Incubator supplied by Thermo Fisher Scientific) at 37° C. in a sterile atmosphere comprising 5% CO2.
(§1) High resolution and high pixel density digitized images of neurons were acquired. […] Total axon outgrowth was determined by placing a 30×30 μm grid over the image and counting the total number of intercepts with the grid line. Total neurite lengths were determined by the summing the lengths of all the neurites produced by an individual neuron.

[1] = system: adult neurals cells isolated from four-month old ZDF rats; experiment: Axon outgrowth from adult neural cells of Zucker diabetic fatty rats (Example 5); type: cell-based, Zucker diabetic fatty rat; conditions: 24-h incubation, 25 mM glucose
Experimental: as §1

[2] = system: adult neural cells isolated from three-month-old STZ rats; experiment: Axon outgrowth from adult neural cells of streptozotocin diabetic rats (Example 4); type: cell-based, Sprague-Dawley rat (STZ diabetic); conditions: 24-h incubation, 25 mM glucose
Experimental: as §1

[3] = at the dosages tested (0.1, 1.0, 10.0 μM)

For `CCC1(c2ccc(N)cc2)CCC(=O)NC1=O` (stereo not shown) [Aminoglutethimide], the “Ave number of intersects per cell per well” value (“Ave number … per well” below) (adult sensory neurons) was 5.9 ± 2.0.
For `CC(C)NCC(O)COc1ccc(CC(N)=O)cc1` (stereo not shown) [Atenolol], the “Ave number … per well” value (adult sensory neurons) was 6.2 ± 0.2.
With `NCC(CC(=O)O)c1ccc(Cl)cc1` (stereo not shown) [Baclofen] the “Ave number … per well” value (adult sensory neurons) was 9.8 ± 2.2.
With `CC(C)(Oc1ccc(CCNC(=O)c2ccc(Cl)cc2)cc1)C(=O)O` [Bezafibrate] the “Ave number … per well” value (adult sensory neurons) was 6.9 ± 1.7.
In the case of `Cn1c(=O)c2c(ncn2C)n(C)c1=O` [Caffeine], the “Ave number … per well” value (adult sensory neurons) is reported as 3.25 ± 1.6.
With `CCCCOc1cc(C(=O)NCCN(CC)CC)c2ccccc2n1` [Dibucaine hydrochloride] the “Ave number … per well” value (adult sensory neurons) was 2.0 ± 0.3.
With `CN[C@@H]1[C@H](O[C@H]2[C@H](O[C@H]3[C@H](O)[C@@H](O)[C@H](NC(=N)N)[C@@H](O)[C@@H]3NC(=N)N)O[C@@H](C)[C@]2(O)CO)O[C@@H](CO)[C@H](O)[C@H]1O` [Dihydrostreptomycin HCl] the “Ave number … per well” value (adult sensory neurons) was 2.4 ± 0.6.
For `CCN(CC)C(C)CN1c2ccccc2Sc2ccccc21` (stereo not shown) [Ethopropazine HCL], the “axon outgrowth relative to the controls” value ([1]; 10.0 μM) was “significantly increased” and the “Ave number … per well” value (adult sensory neurons) was 4.4 ± 1.4.
With `COc1ccccc1OCC(O)CO` (stereo not shown) [Guaifenesin] the “axon outgrowth relative to the controls” value ([2]; 10.0 μM) was “significantly increased”, the “axon outgrowth relative to the controls” value ([1]; 0.1 μM) was “significantly increased” and the “Ave number … per well” value (adult sensory neurons) was 5.0 ± 0.9.
`CC(C(=O)O)c1cccc(C(=O)c2ccccc2)c1` (stereo not shown) [Ketoprofen] was tested, and the “Ave number … per well” value (adult sensory neurons) was 7.9 ± 0.7.
In the case of `CC(=O)O[C@]1(C(C)=O)CC[C@H]2[C@@H]3C=C(C)C4=CC(=O)CC[C@]4(C)[C@H]3CC[C@@]21C` [Megastrol acetate], the “Ave number … per well” value (adult sensory neurons) is reported as 9.2 ± 1.8.
`O=S(=O)(O)CCS` [Mesna] was tested, and the “Ave number … per well” value (adult sensory neurons) was 8.8 ± 3.9.
For `C=N[C@@H](C(=O)N[C@@H]1C(=O)N2[C@@H]1SC(C)(C)[C@@H]2C(=O)O)c1ccccc1` [Metampicillin sodium], the “Ave number … per well” value (adult sensory neurons) was 6.7 ± 1.3.
For `COc1c2occc2cc2ccc(=O)oc12` [Methoxsalen], the “Ave number … per well” value (adult sensory neurons) was 9.7 ± 2.0.
`Nc1ccc(/N=N/c2ccccc2)c(N)n1` [Phenazopyridine HCl] was tested, and the “Ave number … per well” value (adult sensory neurons) was 10.2 ± 0.2.
`CN1CCN(CC(=O)N2c3ccccc3C(=O)Nc3cccnc32)CC1` [Pirenzepine HCl] was tested, and the “axon outgrowth relative to the controls” value [2, 3] was “did not have significant effects”, the “axon outgrowth relative to the controls” value [1, 3] was “did not have significant effects” and the “Ave number … per well” value (adult sensory neurons) was 4.4 ± 0.7.
For `CCCC(CCC)C(=O)[O-].[Na+]` [Sodium valproate], the “Ave number … per well” value (adult sensory neurons) was 8.5 ± 1.8.
Aminopentanoic acid was tested, and the “axon outgrowth relative to the controls” value [2, 3] was “did not have significant effects”.
In the case of Aminopentanoic acid HCl, the “Ave number … per well” value (adult sensory neurons) is reported as 4.3 ± 0.4.
For Hydrocortizone, the “Ave number … per well” value (adult sensory neurons) was 10.7 ± 1.7.
